Data set [1] is described as follows: Laboratory data of liver and kidney function before and after the switch. The format is in vivo, human. Particulars: during the named PPI phase; 18 recipients on tacrolimus. On the procedure:
(§1) Eighteen kidney transplant recipients were recruited for this study from February 2015 to July 2020 (Table 1). The recipients were treated with tacrolimus-based immunosuppression, tacrolimus QD (Graceptor®; Astellas Pharma, Tokyo, Japan) in combination with mycophenolate mofetil and corticosteroids. The initial dose of tacrolimus QD was 0.15–0.20 mg/kg/day for 3–7 days before transplantation. The patients’ PPIs were switched from oral rabeprazole to vonoprazan (TAK-438; Takecab®; Takeda Pharmaceutical Company Limited., Tokyo, Japan) for intensive gastric acid suppression on postoperative days (POD) 3–43. The median (range) dose of oral rabeprazole and vonoprazan were 0.16 (0.11–0.22) and 0.31 (0.11–0.44) mg/kg/day, respectively (Table 1). Blood concentrations of tacrolimus were […] when the rabeprazole was switched to vonoprazan. Liver function for the patients was normal. […] Major symptoms due to gastric ulcer, retching, and heartburn disappeared by switching from rabeprazole to vonoprazan.

Data set [2] in a line: Estimated maximum concentration in the intestinal lumen according to DDI guidelines. The arrangement: species or system human. An excerpt: P-glycoprotein, a drug efflux transporter expressed in the intestinal lumen, can be considered in addition to CYP as the mechanism of the DDIs between vonoprazan and tacrolimus.
A further data set relates to P-glycoprotein. The arrangement: method as in PMID 15467223. Conditions: read-out: IC50 for inhibition of P-glycoprotein transporter activity; cited from earlier work.
A short description of data set [3]: Whole blood trough concentration and C/D ratio of tacrolimus before and after switching PPI from rabeprazole to vonoprazan. The format is in vivo, human. Particulars: for Trough tacrolimus concentration, typical case / C/D ratio of tacrolimus, typical case: single case; for Percentage increase of the C/D ratio: vonoprazan coadministration; for Tacrolimus trough concentration, median (range): whole blood, 18 kidney transplant recipients. How it is done: as §1
Whole blood concentrations of tacrolimus were measured using the ARCHITECT chemiluminescent immunoassay system (Abbot, Abbot Park, IL, USA). Blood samples were collected in the morning just before the morning administration of tacrolimus to determine the trough levels. Tacrolimus dose was adjusted to achieve predefined target concentration ranges of 5–10 ng/mL (POD −3–14), 7–8 ng/mL (POD 14–28), and 5–8 ng/mL (after POD 28). The change in concentration/dose (C/D; in nanogram per milliliter/milligram per kilogram) ratio of tacrolimus before and after initiating oral vonoprazan was calculated to assess the DDIs.
Genomic DNA was extracted from peripheral whole blood samples using the QIAamp DNA blood kit system (Qiagen, Hilden, Germany) according to the manufacturer’s instruction. Subjects were genotyped for CYP2C19 rs4244285 (CYP2C19*2), CYP2C19 rs4986893 (CYP2C19*3), and CYP3A5 rs776746 (CYP3A5*3) polymorphisms. These variants were identified by real-time polymerase chain reaction (PCR) using a TaqMan® Drug Metabolism Genotyping Assays (Thermo Fisher Scientific, Waltham, MA, USA) with a QuantStudio 3 real-time PCR system (Thermo Fisher Scientific). Recipients were categorized into two groups based on the CYP2C19 genotypes (extensive metabolizer (EM; CYP2C19*1/*1)), intermediate metabolizer (IM; CYP2C19*1/*2 and *1/*3), and poor metabolizer (PM; *2/*2, *2/*3, and *3/*3)] and the CYP3A5 genotypes (CYP3A5*1 carrier (CYP3A5*1/*1 and CYP3A5*1/*3)) and the noncarrier (CYP3A5*3/*3)].
The Wilcoxon signed-rank test was used to compare the difference in the concentration and C/D ratio of tacrolimus before and after switching to vonoprazan. Differences in the concentration and C/D ratio of tacrolimus among the genotypes were compared by the Mann–Whitney U test. The statistical analyses were carried out using SPSS 26.0 (IBM, Tokyo, Japan). Results with a p value of <0.05 were considered statistically significant.

Data set [4] in a line: Clinical observation of adverse events and gastric symptoms after switching. It counts as in vivo, human. On the procedure: as §1
For data set [5] the following is noted: cited from earlier work; for Increase in C/D ratio of tacrolimus after the conversion: outpatient phase of post-transplantation.
Details of data set [6]: method as in PMID 19177031. Particulars: cited from earlier work.
Where [7] appears, read: CYP2C19 EM, n=5, rabeprazole to vonoprazan.
Where [8] appears, read: CYP2C19 IM/PM, n=13, Rabeprazole.
Setting [9] is: CYP2C19 IM/PM, n=13, Vonoprazan.
Setting [10] is: CYP2C19 IM/PM, n=13, rabeprazole to vonoprazan.
[11] abbreviates: CYP3A5 *1 carrier, n=5, Rabeprazole.
Where [12] appears, read: CYP3A5 *1 carrier, n=5, Vonoprazan.
The mark [13] stands for this setting: CYP3A5 *1 carrier, n=5, rabeprazole to vonoprazan.
[14] abbreviates: CYP3A5 *1 noncarrier, n=13, Rabeprazole.
[15] abbreviates: CYP3A5 *1 noncarrier, n=13, Vonoprazan.
[16] abbreviates: CYP3A5 *1 noncarrier, n=13, rabeprazole to vonoprazan.
[17] abbreviates: rabeprazole to vonoprazan, 18 recipients.
Where [18] appears, read: vonoprazan coadministration vs rabeprazole.

pIC50: −log10 of the molar value. Values joined by “and” are separate entries in the source; they are usually repeats but may differ in a detail not shown here. Equal entries are not always repeated. Where two headings read alike, the source gives them in different places.

The pIC50 is the negative decadic logarithm of the IC50, by convention in mol/L. In the case of `COCCCOc1ccnc(C[S+]([O-])c2nc3ccccc3[nH]2)c1C` (stereo not shown) [Rabeprazole], in data set [1], the Alanine aminotransferase, median (range) was 28 IU/L; the Aspartate aminotransferase, median (range) is 16 IU/L; the “Blood urine nitrogen, median (range)” value is recorded as 24.2 (9.8–78.7) mg/dL; the “Serum creatinine, median (range)” value was 1.55 (0.62–4.31) mg/dL. The “Estimated maximum concentration in the intestinal lumen” value in data set [2] (administered at 10 mg) is 111 µM. For the same compound, in the data set with P-glycoprotein, the pIC50 is at most 4.00.
In the case of `C=CC[C@@H]1/C=C(\C)C[C@H](C)C[C@H](OC)[C@H]2O[C@@](O)(C(=O)C(=O)N3CCCC[C@H]3C(=O)O[C@H](/C(C)=C/[C@@H]3CC[C@@H](O)[C@H](OC)C3)[C@H](C)[C@@H](O)CC1=O)[C@H](C)C[C@@H]2OC` [Tacrolimus], the “Tacrolims C/D Ratio, median” value in data set [3] (CYP2C19 EM, n=5, Rabeprazole) is recorded as 25.6 (ng/mL)/(mg/kg/day); in data set [3] (CYP2C19 EM, n=5, Vonoprazan), 40.7 (ng/mL)/(mg/kg/day); in data set [3] (setting [8]), 39.5 (ng/mL)/(mg/kg/day); in data set [3] (setting [9]), 50.4 (ng/mL)/(mg/kg/day); in data set [3] (setting [11]) it was 36.9 (ng/mL)/(mg/kg/day); in data set [3] (setting [12]), 45.1 (ng/mL)/(mg/kg/day). The “Tacrolims C/D Ratio, median” value is 44.9 (ng/mL)/(mg/kg/day) in data set [3] (setting [14]) and 50.4 (ng/mL)/(mg/kg/day) in data set [3] (setting [15]). In addition, the “Tacrolimus Concentration, median” value in data set [3] (CYP2C19 EM, n=5, Rabeprazole) is listed as 4.0 ng/mL; in data set [3] (CYP2C19 EM, n=5, Vonoprazan), 8.5 ng/mL; in data set [3] (setting [8]), 5.3 ng/mL; in data set [3] (setting [9]) it was 7.7 ng/mL; in data set [3] (setting [11]) it was 5.3 ng/mL; in data set [3] (setting [12]) it was 8.5 ng/mL. Also, the “Tacrolimus Concentration, median” value in data set [3] (setting [14]) was 5.0 ng/mL; in data set [3] (setting [15]), 7.5 ng/mL. Further, the “ΔC/D Ratio, median” value in data set [3] (setting [7]) came to 15.1; in data set [3] (setting [10]), 6.3; in data set [3] (setting [13]), 14.6; in data set [3] (setting [16]), 18.3. In addition, the ΔConcentration, median amounted to 3.6 ng/mL in data set [3] (setting [7]), 3 ng/mL in data set [3] (setting [10]), 2.8 ng/mL in data set [3] (setting [13]) and 3.3 ng/mL in data set [3] (setting [16]). For the same compound, the “Percent change in tacrolimus C/D ratio after the switching, median (range)” value in data set [3] (setting [17]) is 41.8% and 41.8 (2.7–129.8) %. The “Percent change in tacrolimus concentration after the switching, median (range)” value in data set [3] (setting [17]) was 65.8% and 65.8 (0.0–192.5) %. Also, the “Trough tacrolimus concentration, typical case” value was in the range of 9.4 to 10.7 ng/mL in data set [3] (after switching to vonoprazan) and 3.8 to 4.7 ng/mL in data set [3] (rabeprazole phase). For the same compound, the “C/D ratio of tacrolimus, typical case” value in data set [3] (rabeprazole phase) was 26.2–29.0; in data set [3] (vonoprazan phase, 10 mg, before dose escalation), 33.6–37.1; in data set [3] (vonoprazan phase, after escalation to 20 mg) it was 41.3–48.8. For the same compound, the “Elevation in C/D ratio of tacrolimus” value in data set [3] (setting [18]) came to 1.4 fold. Also, the “Elevation in blood concentration of tacrolimus” value in data set [3] (setting [18]) is 1.7 fold. For the same compound, the results for the “Percentage increase of the C/D ratio” value in data set [3] (CYP3A5*1 carriers) and in data set [3] (CYP3A5*1 noncarriers) were 44.4% and 39.1%, respectively. Also, the “Tacrolimus trough concentration, median (range)” value in data set [3] (with rabeprazole, before switching) is 5.2 (3.6–7.4) ng/mL; in data set [3] (with vonoprazan, after switching), 8.1 (6.1–11.7) ng/mL. The “Tacrolimus C/D ratio, median (range)” value in data set [3] (with rabeprazole, before switching, 18 recipients) was 38.1 (16.5–138.1) (ng/mL)/(mg/kg); in data set [3] (with vonoprazan, 7 days after initiating, 18 recipients), 48.9 (26.6–207.2) (ng/mL)/(mg/kg). The Adverse events result in data set [4] (all patients, after switching to vonoprazan, tacrolimus kept in therapeutic range) is listed as “No adverse event was observed”. The “Increase in C/D ratio of tacrolimus after the conversion” value in data set [5] (ref 27) is recorded as 10.6%; in data set [5] (ref 30) it was “no increase”. Moreover, the “Increase of the C/D ratio of tacrolimus after switching rabeprazole to vonoprazan” value in data set [5] (outpatients 2–7 years post-transplantation) was 1.1 fold. For the same compound, the “Increase of tacrolimus trough levels after switching to vonoprazan” value in data set [5] (outpatients, even in the CYP2C19 IM/PM in the CYP3A5*1 noncarriers) was “no significant increase”. Besides, the “Therapeutic range of blood concentration” value in data set [6] was 5 to 15 ng/mL.
In the case of `CNCc1cc(-c2ccccc2F)n(S(=O)(=O)c2cccnc2)c1.O=C(O)/C=C/C(=O)O` [Vonoprazan, 1-[5-(2-Fluorophenyl)-1-(pyridin-3-ylsulfonyl)-1H-pyrrol-3-yl]-N-methylmethanamine monofumarate], in data set [1], the Alanine aminotransferase, median (range) came to 22 IU/L; the Aspartate aminotransferase, median (range) was found to be 15 IU/L; the “Blood urine nitrogen, median (range)” value is recorded as 17.4 (7.5–45.4) mg/dL; the “Serum creatinine, median (range)” value was 1.21 (0.58–2.84) mg/dL. In data set [4] (switching from rabeprazole to vonoprazan), the “Major symptoms due to gastric ulcer, retching and heartburn” value was “disappeared”. In data set [2] (administered at 20 mg), the “Estimated maximum concentration in the intestinal lumen” value is recorded as 231 µM. The pIC50 with P-glycoprotein is 4.30.

(Values after PMC8432116, “Drug–Drug Interaction between Tacrolimus and Vonoprazan in Kidney Transplant Recipients” (Journal of Clinical Medicine, 2021).)
